Results from patent US20190284220A1, “CRYSTAL FORM OF DAPAGLIFLOZIN INTERMEDIATE AND PREPARATION METHOD THEREFOR” (Jiangsu Hansoh Pharmaceutical Group Co., Ltd., priority 2016, published 2019).

Assay: Stability study of crystal form A
Type: physicochemical
Conditions: for Crystal form / Purity: 25° C.
Text: Experimental Example 1 Stability Study

Structure (SMILES): CCOc1ccc(Cc2cc([C@]3(OCC)O[C@H](CO)[C@@H](O)[C@H](O)[C@H]3O)ccc2Cl)cc1 [crystal form A, (2S,3R,4S,5S,6R)-2-(4-chloro-3-(4-ethoxybenzyl)phenyl)-2-ethoxy-6-(methylhydroxy)tetrahydro-2H-pyran-3,4,5-triol]
- Crystal form (0 day): Crystal form A
- Purity (0 day): 99.45%
- Crystal form (1 month): Crystal form A
- Purity (1 month): 99.41%
- Crystal form (3 months): Crystal form A
- Purity (3 months): 99.43%
- Crystal form after drying (dried under vacuum at 50° C. for 3 hours): not changed
- Crystal form after storage (room temperature (25° C.), 3 months): not changed
